From patent publication US9458113B2 (Boehringer Ingelheim International GmbH, priority 2014, dated 2016)

Target: Human neutrophil elastase (Homo sapiens (Human), UniProt P08246)
Test: Human Neutrophil Elastase Assay
Type: biochemical
Conditions: substrate MeOSuc-Ala-Ala-Pro-Val-AMC 250 μM, pH 7.5

Human neutrophil elastase, sequence (P08246 30-247): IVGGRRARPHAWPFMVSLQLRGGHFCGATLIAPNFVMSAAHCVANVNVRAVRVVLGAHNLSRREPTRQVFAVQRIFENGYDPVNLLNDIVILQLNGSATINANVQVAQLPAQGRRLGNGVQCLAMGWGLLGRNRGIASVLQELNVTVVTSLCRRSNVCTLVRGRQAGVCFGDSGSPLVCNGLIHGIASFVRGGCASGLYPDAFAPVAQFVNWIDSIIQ

Structure (SMILES) | IC50
CN1C(=O)N(c2cccc(C(F)(F)F)c2)C2=C(C(=O)CC2)C1c1ccc(C#N)cc1C(=O)NCc1nnnn1C (stereo not shown) [Example 1.62] | 2.5 nM
N#Cc1ccc(C2NC(=O)N(c3cccc(C(F)(F)F)c3)C3=C2C(=O)CC3)c(-c2ccoc2)c1 (stereo not shown) [Example 19, 4-[2,5-Dioxo-1-(3-trifluoromethyl-phenyl)-2,3,4,5,6,7-hexahydro-1H-cyclopentapyrimidin-4-yl]-3-furan-3-yl-benzonitrile] | 10.1 nM
CN1C(=O)N(c2cccc(C(F)(F)F)c2)C2=C(C(=O)CCC2)C1c1ccc(C#N)cc1C1=CCNCC1 (stereo not shown) [Example 16, 4-[3-Methyl-2,5-dioxo-1-(3-trifluoromethyl-phenyl)-1,2,3,4,5,6,7,8-octahydro-quinazolin-4-yl]-3-(1,2,3,6-tetrahydro-pyridin-4-yl)-benzonitrile] | < 1 nM
CN1C(=O)N(c2cccc(C(F)(F)F)c2)C2=C(C(=O)CC2)C1c1ccc(C#N)cc1C(=O)NCc1ccno1 (stereo not shown) [Example 1.39] | 1.9 nM
CN1C(=O)N(c2cccc(C(F)(F)F)c2)C2=C(C(=O)CC2)C1c1ccc(C#N)cc1C(=O)NCC(C)(C)O (stereo not shown) [Example 1.19] | 9.5 nM
CN1C(=O)N(c2cccc(C(F)(F)F)c2)C2=C(C(=O)CC2)C1c1ccc(C#N)cc1C(=O)NCc1nccn1C (stereo not shown) [Example 1.58] | 2.4 nM
CN1C(=O)N(c2cccc(C(F)(F)F)c2)C2=C(C(=O)CC2)C1c1ccc(C#N)cc1C(=O)N1CCC(O)CC1 (stereo not shown) [Example 1.22] | 10.3 nM
CN(Cc1ccncc1)C(=O)c1cc(C#N)ccc1C1C2=C(CCC2=O)N(c2cccc(C(F)(F)F)c2)C(=O)N1C (stereo not shown) [Example 1.65] | 1.7 nM
CN1C(=O)N(c2cccc(C(F)(F)F)c2)C2=C(C(=O)CC2)C1c1ccc(C#N)cc1C1=CCNC1 (stereo not shown) [Example 14, 3-(2,5-Dihydro-1H-pyrrol-3-yl)-4-[3-methyl-2,5-dioxo-1-(3-trifluoromethyl-phenyl)-2,3,4,5,6,7-hexahydro-1H-cyclopentapyrimidin-4-yl]-benzonitrile] | < 1 nM
CN1C(=O)N(c2ccnc(C(F)(F)F)c2)C2=C(C(=O)CC2)[C@H]1c1ccc(C#N)cc1C(N)=O [Example 8, 5-Cyano-2-[(R)-3-methyl-1-(2-trifluoromethyl-pyridin-4-yl)-2,5-dioxo-2,3,4,5,6,7-hexahydro-1H-cyclopentapyrimidin-4-yl]-benzamide] | 41 nM
CC(=O)N(C)[C@H]1CCN(C(=O)c2cc(C#N)ccc2C2C3=C(CCC3=O)N(c3cccc(C(F)(F)F)c3)C(=O)N2C)C1 (stereo partly shown) [Example 1.77] | 2.3 nM
CN(Cc1ccn(C)n1)C(=O)c1cc(C#N)ccc1C1C2=C(CCC2=O)N(c2cccc(C(F)(F)F)c2)C(=O)N1C (stereo not shown) [Example 1.73] | 1.3 nM
CN1C(=O)N(c2cccc(C(F)(F)F)c2)C2=C(C(=O)CC2)C1c1ccc(C#N)cc1C(=O)NCc1ccco1 (stereo not shown) [Example 1.36] | 2.2 nM
CN1C(=O)N(c2cccc(C(F)(F)F)c2)C2=C(C(=O)CC2)C1c1ccc(C#N)cc1CN1CCOCC1 (stereo not shown) [Example 9, 4-[3-Methyl-2,5-dioxo-1-(3-trifluoromethyl-phenyl)-2,3,4,5,6,7-hexahydro-1H-cyclopentapyrimidin-4-yl]-3-morpholin-4-ylmethyl-benzonitrile] | 1.4 nM
CN1C(=O)N(c2cccc(C(F)(F)F)c2)C2=C(C(=O)CCC2)C1c1ccc(C#N)cc1C(N)=O (stereo not shown) [Example 6, 5-Cyano-2-[3-methyl-2,5-dioxo-1-(3-trifluoromethyl-phenyl)-1,2,3,4,5,6,7,8-octahydro-quinazolin-4-yl]-benzamide] | 1.6 nM
CN(CCN1CCOCC1)C(=O)c1cc(C#N)ccc1C1C2=C(CCC2=O)N(c2cccc(C(F)(F)F)c2)C(=O)N1C (stereo not shown) [Example 1.81] | 1.6 nM
CN1C(=O)N(c2cccc(C(F)(F)F)c2)C2=C(C(=O)CC2)C1c1ccc(C#N)cc1C(=O)NCc1ccn(C)n1 (stereo not shown) [Example 1.53] | 2.2 nM
CN1C(=O)N(c2cccc(C(F)(F)F)c2)C2=C(C(=O)CC2)C1c1ccc(C#N)cc1C(=O)N1Cc2ccncc2C1 (stereo not shown) [Example 1.63] | 3.9 nM

Structure (SMILES) | IC50
CN1C(=O)N(c2cccc(C(F)(F)F)c2)C2=C(C(=O)CC2)C1c1ccc(C#N)cc1C(=O)N1CCCC1 (stereo not shown) [Example 1.10] | 3.4 nM
CN(Cc1nncn1C)C(=O)c1cc(C#N)ccc1C1C2=C(CCC2=O)N(c2cccc(C(F)(F)F)c2)C(=O)N1C (stereo not shown) [Example 1.75] | 1.4 nM
CN1C(=O)N(c2cccc(C(F)(F)F)c2)C2=C(C(=O)CC2)C1c1ccc(C#N)cc1C(=O)N1CCn2ncnc2C1 (stereo not shown) [Example 1.70] | 1.9 nM
CN1C(=O)N(c2ccnc(C(F)(F)F)c2)C2=C(C(=O)CC2)C1c1ccc(C#N)cc1-c1ccoc1 (stereo not shown) [Example 17, 3-Furan-3-yl-4-[3-methyl-2,5-dioxo-1-(2-trifluoromethyl-pyridin-4-yl)-2,3,4,5,6,7-hexahydro-1H-cyclopentapyrimidin-4-yl]-benzonitrile] | 11.2 nM
CN1C(=O)N(c2cccc(C(F)(F)F)c2)C2=C(C(=O)CC2)C1c1ccc(C#N)cc1-c1cnco1 (stereo not shown) [Example 10, 4-[3-Methyl-2,5-dioxo-1-(3-trifluoromethyl-phenyl)-2,3,4,5,6,7-hexahydro-1H-cyclopentapyrimidin-4-yl]-3-oxazol-5-yl-benzonitrile] | 1.2 nM
CN1C(=O)N(c2cccc(C(F)(F)F)c2)C2=C(C(=O)CC2)C1c1ccc(C#N)cc1C(=O)N1CCN2CCCC2C1 (stereo not shown) [Example 3.3] | 7.5 nM
CN1C(=O)N(c2cccc(C(F)(F)F)c2)C2=C(C(=O)CC2)C1c1ccc(C#N)cc1C(=O)NCc1ccnn1C (stereo not shown) [Example 1.56] | 5.4 nM
CN1C(=O)N(c2cccc(C(F)(F)F)c2)C2=C(C(=O)CC2)C1c1ccc(C#N)cc1C(=O)NCCF (stereo not shown) [Example 1.9] | 5.5 nM
CN1C(=O)N(c2cccc(C(F)(F)F)c2)C2=C(C(=O)CC2)C1c1ccc(C#N)cc1C(=O)N1CCN2CCOCC2C1 (stereo not shown) [Example 1.35] | 16.2 nM
CN1C(=O)N(c2cccc(C(F)(F)F)c2)C2=C(C(=O)CC2)C1c1ccc(C#N)cc1C(=O)NC1CCOC1 (stereo not shown) [Example 1.18] | 6.9 nM
CN1C(=O)N(c2cccc(C(F)(F)F)c2)C2=C(C(=O)CC2)C1c1ccc(C#N)cc1C(=O)NCCN1CCOCC1 (stereo not shown) [Example 1.76] | 4.5 nM
CN(Cc1cncn1C)C(=O)c1cc(C#N)ccc1C1C2=C(CCC2=O)N(c2cccc(C(F)(F)F)c2)C(=O)N1C (stereo not shown) [Example 1.72] | < 1 nM
CN1C(=O)N(c2cccc(C(F)(F)F)c2)C2=C(C(=O)CC2)C1c1ccc(C#N)cc1C(=O)N1CCC(N2CCOCC2)C1 (stereo not shown) [Example 1.79] | 3 nM
CN1C(=O)N(c2cccc(C(F)(F)F)c2)C2=C(C(=O)CC2)C1c1ccc(C#N)cc1C(=O)NCCS(C)(=O)=O (stereo not shown) [Example 1.26] | 4.6 nM
CN1C(=O)N(c2cccc(C(F)(F)F)c2)C2=C(C(=O)CC2)C1c1ccc(C#N)cc1C(=O)N1Cc2cnn(C)c2C1 (stereo not shown) [Example 1.67] | 4.1 nM
CN1C(=O)N(c2cccc(C(F)(F)F)c2)C2=C(C(=O)CC2)C1c1ccc(C#N)cc1C(=O)NCc1nncn1C (stereo not shown) [Example 1.61] | 6 nM
CN(C)CCNC(=O)c1cc(C#N)ccc1C1C2=C(CCC2=O)N(c2cccc(C(F)(F)F)c2)C(=O)N1C (stereo not shown) [Example 1.29] | 4.8 nM

The remaining lines, values ahead:

IC50 | Structure (SMILES)
25 nM | CNC(=O)c1cc(C#N)ccc1C1C2=C(CCC2=O)N(c2ccnc(C(F)(F)F)c2)C(=O)N1C (stereo not shown) [Example 8.1]
32.8 nM | CN1C(=O)N(c2ccnc(C(F)(F)F)c2)C2=C(C(=O)CC2)C1c1ccc(C#N)cc1C(=O)N1CCCC1 (stereo not shown) [Example 8.3]
3.3 nM | CN1C(=O)N(c2cccc(C(F)(F)F)c2)C2=C(C(=O)CC2)C1c1ccc(C#N)cc1-c1ccco1 (stereo not shown) [Example 11.8]
1.3 nM | CN1C(=O)N(c2cccc(C(F)(F)F)c2)C2=C(C(=O)CCC2)C1c1ccc(C#N)cc1C1=CCOCC1 (stereo not shown) [Example 15.9]
5.9 nM | CN1C(=O)N(c2cccc(C(F)(F)F)c2)C2=C(C(=O)CC2)C1c1ccc(C#N)cc1C(=O)N1CC[C@@H](N)C1 (stereo partly shown) [Example 4.8]
10.8 nM | CC1CN(C(=O)c2cc(C#N)ccc2C2C3=C(CCC3=O)N(c3cccc(C(F)(F)F)c3)C(=O)N2C)CCN1 (stereo not shown) [Example 4.16]
2.1 nM | CC(C)NCc1cc(C#N)ccc1C1C2=C(CCC2=O)N(c2cccc(C(F)(F)F)c2)C(=O)N1C (stereo not shown) [Example 9.1]
16.8 nM | CN(C)C(=O)c1cc(C#N)ccc1C1C2=C(CCC2=O)N(c2ccnc(C(F)(F)F)c2)C(=O)N1C (stereo not shown) [Example 8.2]
1.7 nM | CN1C(=O)N(c2cccc(C(F)(F)F)c2)C2=C(C(=O)CC2)C1c1ccc(C#N)cc1C1=CCN(C(=O)OC(C)(C)C)CC1 (stereo not shown) [Example 11.6, 4-{5-Cyano-2-[3-methyl-2,5-dioxo-1-(3-trifluoromethyl-phenyl)-2,3,4,5,6,7-hexahydro-1H-cyclopentapyrimidin-4-yl]-phenyl}-3,6-dihydro-2H-pyridine-1-carboxylic acid tert-butyl ester]
3.8 nM | CN[C@H]1CCN(C(=O)c2cc(C#N)ccc2C2C3=C(CCC3=O)N(c3cccc(C(F)(F)F)c3)C(=O)N2C)C1 (stereo partly shown) [Example 4.12]
6.9 nM | CN1C(=O)N(c2cccc(C(F)(F)F)c2)C2=C(C(=O)CC2)C1c1ccc(C#N)cc1C(=O)N[C@H]1CCNC1 (stereo partly shown) [Example 4.6]
4.6 nM | CN1C(=O)N(c2ccnc(C(F)(F)F)c2)C2=C(C(=O)CC2)C1c1ccc(C#N)cc1C1=CCN(C(=O)OC(C)(C)C)CC1 (stereo not shown) [Example 17.2, 4-{5-Cyano-2-[3-methyl-2,5-dioxo-1-(2-trifluoromethyl-pyridin-4-yl)-2,3,4,5,6,7-hexahydro-1H-cyclopentapyrimidin-4-yl]-phenyl}-3,6-dihydro-2H-pyridine-1-carboxylic acid tert-butyl ester]
2.9 nM | CN1C(=O)N(c2cccc(C(F)(F)F)c2)C2=C(C(=O)CCC2)C1c1ccc(C#N)cc1C(=O)N1CCOCC1 (stereo not shown) [Example 6.1]
6 nM | CN1C(=O)N(c2cccc(C(F)(F)F)c2)C2=C(C(=O)CC2)C1c1ccc(C#N)cc1-c1ccc2c(ccn2C)c1 (stereo not shown) [Example 11.14]
7.1 nM | CN1C(=O)N(c2cccc(C(F)(F)F)c2)C2=C(C(=O)CC2)C1c1ccc(C#N)cc1C(=O)NC1CCNCC1 (stereo not shown) [Example 4.2]
1.1 nM | CN(C)C(=O)c1cc(C#N)ccc1C1C2=C(CCCC2=O)N(c2cccc(C(F)(F)F)c2)C(=O)N1C (stereo not shown) [Example 6.4]
2.8 nM | CN1C(=O)N(c2cccc(C(F)(F)F)c2)C2=C(C(=O)CCC2)C1c1ccc(C#N)cc1-c1ccn(C)n1 (stereo not shown) [Example 15.1]
